# Literature values as cited in publication PMC4469068 (Endocrine-related cancer, 2012).
# *1 amine or outer side, *2 acyl side, *3 side chain or, on linkers, in order; H or OH if unused. Where a SMILES comes first, the peptide text is derived from it. Side-chain parts run from the residue outwards. [ ]: non-standard residue; d: D form. The star is where a group is joined. Ethylenediamine = C(CN[*:2])N[*:1]; Hyp = O=C(O)[C@@H]1C[C@@H](O)CN1; Phg = N[C@H](C(=O)O)c1ccccc1; CO = O=C([*:1])[*:2]; Bn = c1ccc(C*)cc1
# Legend:
# [1] = test system: pancreatic neuroendocrine tumors; settings: ref Yao et al. 2011
# QTc interval = settings: 1950 mcg twice daily, healthy adults; ref Novartis, 2012
# [2] = test system: patients with octreotide-refractory carcinoid syndrome; settings: pasireotide 300–1200 mcg bid; ref Kvols et al. 2006
# patients with acromegaly = settings: pasireotide 200–600 mcg BID; ref Petersenn et al. 2010
# [3] = test system: cell lines derived from small intestine or pancreatic neuroendocrine tumors; settings: in vitro; ref Kidd, et al. 2008
# [4] = test system: human corticotroph or somatotroph tumor cell lines; settings: in vitro; ref Batista, et al. 2006; Danila, et al. 2001
# [5] = test system: advanced carcinoid tumors; settings: vs. 6 months with placebo; ref Rinke, et al. 2009
compound,measurement,setting,value
CO[C@H]1C[C@@H]2CC[C@@H](C)[C@@](O)(O2)C(=O)C(=O)N2CCCC[C@H]2C(=O)O[C@H]([C@H](C)C[C@@H]2CC[C@@H](OCCO)[C@H](OC)C2)CC(=O)[C@H](C)/C=C(\C)[C@@H](O)[C@@H](OC)C(=O)[C@H](C)C[C@H](C)/C=C/C=C/C=C/1C [everolimus],rate of tumor regression,"[1]; everolimus alone, randomized trial",64%
same,"hyperglycemia, patients in the everolimus treatment arm","[1]; single agent, any grade",13%
same,hyperglycemia categorized as grade 3 or 4,[1]; single agent,5%
NCCCC[C@@H]1NC(=O)[C@@H](Cc2c[nH]c3ccccc23)NC(=O)[C@H](c2ccccc2)NC(=O)[C@@H]2C[C@@H](OC(=O)NCCN)CN2C(=O)[C@H](Cc2ccccc2)NC(=O)[C@H](Cc2ccc(OCc3ccccc3)cc2)NC1=O [pasireotide] (cyclo([Hyp]([CO-Ethylenediamine])[Phg][dW]KY(Bn)F)),binding affinity,sst2; ref Schmid 2008,high binding affinity
same,binding affinity compared with octreotide,sst2; ref Schmid and Schoeffter 2004,comparable affinity
same,effect on QTc,QTc interval,possible QTc prolongation effect
same,"hyperglycemia, patients affected",[2],27%
same,binding affinity,sst3; ref Schmid 2008,high binding affinity
same,binding affinity compared with octreotide,sst3; ref Schmid and Schoeffter 2004,greater binding affinity
same,binding affinity,sst1; ref Schmid 2008,high binding affinity
same,binding affinity compared with octreotide,sst1; ref Schmid and Schoeffter 2004,greater binding affinity
same,"hyperglycemia, patients affected",patients with acromegaly,6.7%
same,binding affinity,sst5; ref Schmid 2008,high binding affinity
same,binding affinity compared with octreotide,sst5; ref Schmid and Schoeffter 2004,greater binding affinity
same,effect on cell proliferation,[3],inhibition of cell proliferation
same,effect on cell proliferation,[4],suppress cell proliferation
octreotide,median time to tumor progression,[5],14.3 months
